Results published in patent US5639726A, “Peptide mediated enhancement of thrombolysis methods and compositions” (The Regents of the University of Michigan, priority 1994, dated 1997).
Ends that are not written are not given here.

Legend:
PAI-1 = target: T1, PAI-1 (Homo sapiens, UniProt P05121); test: Kinetics of peptide annealing: residual PAI inhibitory activity assayed with β-trypsin and S-2222; format: biochemical; conditions: peptide 5.5 mM; 25° C.
T1 construct: made in house; host or cells: E. coli (vector pET3a)
Experimental: PAI-1 (6.4 μM) was incubated with increasing concentrations of each peptide at 23° C. and the (T1/2) of PAI-1 inactivation was determined by measuring the PAI-1 activity remaining over time.
Peptides were dissolved in 1 mM HCl+1% TWEEN-80 (the three PAI peptides) (SEQ ID NOS: 1-3), or in 0.1M HEPES (SEQ ID NOS: 4-5), 0.1M NaCl, 0.1% PEG-8000, pH […] (the two consensus peptides). Peptides were annealed to active PAI by incubation of active PAI in 0.1M HEPES, 0.1M NaCl, 0.1% PEG-8000, pH 7.4 with a peptide in its solvent. Ten percent of the final incubation mixture consisted of the peptide solvent. Incubation was carried out at 25° C. until no PAI inhibitory activity remained as determined by kinetics rate assays with trypsin, described below. The final concentration of PAI in the incubation mixture was either 0.9 μM (for kinetics assays) or 6.3 μM (for gels and purification). The peptide concentrations varied greatly due to the individual solubilities and rates of insertion of each peptide. These concentrations are given in the legends of the appropriate figures.
During annealing of 0.9 μM PAI with a peptide, the residual inhibitory activity of PAI was measured after varying incubation times by assaying an aliquot of the sample with β-trypsin. Trypsin (1 nM final concentration) was added to the chromogenic substrate S-2222 (950 μM) with 27 nM PAI sample. The absorbance at 405 nm was measured continuously for at least 12.5 min in a Shimadzu UV-265 UV-visible spectrophotometer. The pseudo-first order rate constant of trypsin is an indirect measure of the amount of PAI that has lost inhibitory activity due either to annealing or to becoming latent. The rate constant of controls containing the peptide solvent but no peptide was subtracted from that of the experimental assays in order to correct for the effect of the simultaneous change of PAI from the active to the latent state.

fibrin clot = test: In vitro clot lysis assay, fluorescein-labeled fibrin clots with recombinant PAI-1; format: biochemical, human
Experimental: Clot lysis assays were performed as previously described (Fay et al., 1994). A mixture of glu-plasminogen (0.2 μM), fluorescein-labeled fibrinogen (3 μM), PAI-1 (0.7 μM) was prepared. t-PA (20 nM) was added 30 minutes after clot formation and clot lysis was allowed to occur for 60 minutes at 37° C., after which the tubes were centrifuged (16,000×3 min), and 80 μL of the supernatant was removed and diluted into 1.2 mL of 10 mM Tris-HCl, 140 mM NaCl, pH 7.5. The fluorescence of this dilution was measured and % clot lysis was calculated, as previously described (Fay et al., 1994). The capacity of P1-P14 peptide to accelerate fibrinolysis in vitro, both in the absence and presence of platelets was also evaluated. Fluorescein-labeled fibrin clots were formed in the presence of recombinant PAI-1 (0.7 μM) and either P1-P14 peptide (55 μM), an irrelevant 14 amino acid peptide (55 μM), or no peptide. After 30 min at 37° C., fibrinolysis was initiated by the addition of t-PA (20 nM), and % clot lysis was determined 60 min later. Addition of P1-P14 peptide increased clot lysis from 28±7% to 90±6% (mean±SEM of triplicate experiments), whereas the control peptide had no effect on clot lysis either in the presence or absence of PAI-1 (FIG. 6a). In similar experiments, platelet-rich clots were formed by clotting fluorescein-labeled fibrinogen in the presence of 2.5×10^8 platelets/mL, and fibrinolysis was initiated by the addition of t-PA (75 pM).

platelet-rich clots = test: In vitro clot lysis assay, platelet-rich clots; format: biochemical, human
Experimental: Blood samples were collected by peripheral venipuncture from normal subjects into acid-citrate-dextrose anticoagulant (0.8% w/v citric acid, 2.2% trisodium citrate, 2.45% dextrose) at a ratio of 6 volumes of blood to 1 volume of anticoagulant. Donors had not consumed aspirin for at least 7 days prior to phlebotomy. Washed platelets were prepared by repeated centrifugation as previously described (Fay et al., 1994), then resuspended in Tyrode's buffer (137 mM NACl, 2.68 mM KCl, 2 mM CaCl2, 1 mM MgCl2, 0.36 mM NaH2 PO4, 11.9 mM NaHCO3, 5 mM HEPES, 0.1% glucose, 0.35% bovine serum albumin, pH 7.35). Clot lysis assays were performed as previously described (Fay et al., 1994). […] The fluorescence of this dilution was measured and % clot lysis was calculated, as previously described (Fay et al., 1994). […] The capacity of P1-P14 peptide to accelerate fibrinolysis in vitro, both in the absence and presence of platelets was also evaluated. […] After 30 min at 37° C., fibrinolysis was initiated by the addition of t-PA (20 nM), and % clot lysis was determined 60 min later. […]

T1 sequence (P05121 24-402): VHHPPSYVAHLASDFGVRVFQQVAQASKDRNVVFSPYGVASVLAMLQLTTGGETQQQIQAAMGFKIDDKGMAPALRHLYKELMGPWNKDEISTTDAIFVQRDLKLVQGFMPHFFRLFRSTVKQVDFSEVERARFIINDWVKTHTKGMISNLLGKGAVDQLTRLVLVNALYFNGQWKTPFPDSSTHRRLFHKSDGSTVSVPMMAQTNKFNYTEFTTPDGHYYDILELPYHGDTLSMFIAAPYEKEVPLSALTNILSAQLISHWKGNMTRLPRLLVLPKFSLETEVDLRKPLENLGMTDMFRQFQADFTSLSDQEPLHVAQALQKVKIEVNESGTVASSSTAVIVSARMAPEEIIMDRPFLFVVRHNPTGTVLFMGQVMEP

**Q.** For “Ac-TVASSSTAVIVSAR [SEQ ID NO: 1, Thr-Val-Ala-Ser-Ser-Ser-Thr-Ala-Val-Ile-Val-Ser-Ala-Arg]”, which k (PAI-1) is on record?
**A.** .014 M⁻¹ s⁻¹

**Q.** And the “dependence of the degree of clot lysis on peptide concentration” value (fibrin clot)?
**A.** proportional

**Q.** And the “inhibition of PAI-1 function in the presence of fibrin” value (fibrin clot)?
**A.** nearly completely inhibited

**Q.** What about the “effect on clot lysis in the absence of PAI-1” value (fibrin clot; absence of PAI-1) of the same substance?
**A.** no augmentation of fibrinolysis

**Q.** What about the “clot lysis at 60 minutes” value (fibrin clot; presence of PAI-1 (0.7 μM), peptide 55 μM, t-PA 20 nM, 28±7% without peptide) of the same substance?
**A.** 90±6%

**Q.** What about the “tPA induced platelet rich clot lysis” value (platelet-rich clots; 70 μM peptide) of the same substance?
**A.** significant enhancement

**Q.** What about the “lysis of platelet-rich clots at 90 minutes” value (platelet-rich clots; 2.5×10^8 platelets/mL, t-PA 75 pM, 8±3% without peptide) of the same substance?
**A.** 41±12%
